The ED50 is the dose that gives a 50% effect, or the effect in half of the subjects.

The text below walks through data of patent US4751235A, “Anti-atherosclerotic indolizine derivatives” (Sandoz Pharm. Corp., priority 1986, dated 1988).

The subject of assay [1] is 3 β-hydroxysterol synthesis. Briefly: Test B. In Vivo Cholesterol Biosynthesis Inhibition Test. The following applies: Rattus norvegicus, rats, oral administration, read-out: ED50 (dose producing 50% inhibition of 3 β-hydroxysterol synthesis). The procedure: Test B. In Vivo Cholesterol Biosynthesis Inhibition Test: This test is also known and is carried out as described on pages 60-61 of said application Ser. No. 06/741,903 and on page 33 of World (PCT) Published Patent Application No. 84/02131, both of which are hereby incorporated by reference as if set forth herein in their entirety.

Another assay deals with T1, HMG-CoA reductase (Rattus norvegicus, UniProt P51639).
T1 construct: from tissue; host or cells: microsomes (printed); rat liver by own knowledge of the cited method
T1 sequence (P51639 1-887): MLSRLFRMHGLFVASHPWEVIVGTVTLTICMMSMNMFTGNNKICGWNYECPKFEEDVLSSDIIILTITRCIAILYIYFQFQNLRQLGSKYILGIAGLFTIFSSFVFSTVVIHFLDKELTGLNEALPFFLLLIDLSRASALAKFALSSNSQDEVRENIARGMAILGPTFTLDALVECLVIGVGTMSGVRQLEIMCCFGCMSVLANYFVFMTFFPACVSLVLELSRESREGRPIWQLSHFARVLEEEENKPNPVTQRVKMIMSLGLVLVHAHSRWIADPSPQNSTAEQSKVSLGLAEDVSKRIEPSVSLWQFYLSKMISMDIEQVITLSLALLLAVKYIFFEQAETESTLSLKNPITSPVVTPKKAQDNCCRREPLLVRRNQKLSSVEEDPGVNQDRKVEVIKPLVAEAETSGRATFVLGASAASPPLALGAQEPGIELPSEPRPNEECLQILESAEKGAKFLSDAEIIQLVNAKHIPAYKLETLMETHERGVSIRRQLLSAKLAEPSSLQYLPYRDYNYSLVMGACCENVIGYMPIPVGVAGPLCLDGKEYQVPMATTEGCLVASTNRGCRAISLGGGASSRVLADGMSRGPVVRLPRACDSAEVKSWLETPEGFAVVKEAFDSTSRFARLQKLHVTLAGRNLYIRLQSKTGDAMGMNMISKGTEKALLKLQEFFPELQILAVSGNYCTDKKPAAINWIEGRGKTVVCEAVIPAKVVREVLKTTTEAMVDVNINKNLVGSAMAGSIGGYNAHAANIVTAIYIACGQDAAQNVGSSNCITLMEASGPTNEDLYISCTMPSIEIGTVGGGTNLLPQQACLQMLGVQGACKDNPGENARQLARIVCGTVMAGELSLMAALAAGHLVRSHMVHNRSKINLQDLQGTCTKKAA
As to the kind of experiment: Test A. In Vitro Microsomal Assay of HMG-CoA Reductase Inhibition. In kind it is biochemical. The note with it: read-out: IC50 (concentration producing 50% inhibition of HMG-CoA reductase activity). The protocol: Test A. In Vitro Microsomal Assay of HMG-CoA Reductase Inhibition:
This test is known and is carried out as described on pages 59-60 of application Ser. No. 06/741,903 (filed June 6, 1985) and on page 30 of World (PCT) Published Patent Application No. 84/02131 both of which are hereby incorporated by reference as if set forth herein in their entirety. The concentration of the test substance (compound of Formula I) in the assay system is 0.0005-2,000 μmolar. The obtained IC50 is the concentration of the test substance in the assay system observed or calculated to produce a 50% inhibition of HMG-CoA reductase activity.

Where a name gives a salt, the structure may show the parent alone.

As for `CCOC(=O)C[C@H](O)C[C@H](O)/C=C/c1c(C(C)C)c2ccccn2c1-c1ccc(F)cc1` (relative stereo) [Example 1, 7-[3-(4-fluorophenyl)-1-(1-methylethyl)-2-indolizinyl]-3,5,-dihydroxy-6-heptenoic acid, ethyl ester (trans)], the ED50 in assay [1] worked out at 0.05 mg/kg.
As for `CC(C)c1c(/C=C/[C@@H](O)C[C@@H](O)CC(=O)O)c(-c2ccc(F)cc2)n2ccccc12` (relative stereo) [Example 2, 7-[3-(4-fluorophenyl)-1-(1-methylethyl)-2-indolizinyl]-3,5,-dihydroxy-6-heptenoic acid, sodium salt (trans)], the IC50 on HMG-CoA reductase stood at 11 nM.
On to `CC[C@H](C)C(=O)O[C@H]1CCC=C2C=C[C@H](C)[C@H](CC[C@@H]3C[C@@H](O)CC(=O)O3)[C@H]21` [Compactin], for which, in assay [1], the ED50 worked out at 3.5 mg/kg.
Still for that read-out and setting: under `CC[C@H](C)C(=O)O[C@H]1C[C@@H](C)C=C2C=C[C@H](C)[C@H](CC[C@@H]3C[C@@H](O)CC(=O)O3)[C@H]21` [Mevinolin] stands 0.41 mg/kg.
